Where two headings read alike, the source gives them in different places.
Key:
[1] = In vivo oral bioavailability assay in rats; details: rat; for AUC(0-t): 0-24 hours; for MRT inf: read-out: MRT0-∞
Text: The compound PCMI-08 was synthesized and detected according to the methods provided in the present invention. The internal standard, paclitaxel, was purchased from China's National Institute for the Control of Pharmaceutical and Biological Products (NICPBP). Chromatography-grade acetonitrile was purchased from Sigma-Aldrich Inc. Tween 80 and ethyl acetate were purchased from Aladdin reagent Inc. Male S.D. rats were purchased from Beijing Weitonglihua Inc. and raised in animal house for two weeks.
200 mg of PCMI-08 was dissolved in 4 ml of a mixed solution of Tween 80 and anhydrous ethanol (1:1) to prepare a stock solution at 50 mg/ml and normal saline was added to adjust to a suitable concentration. 12 male S.D. rats (300 g of body weight) were taken and divided into two groups after overnight fasting. One group was treated with intravenous injection (5 mg/kg) and the other group was treated orally (60 mg/kg). Blood was sampled in the intravenous group at 0th min, 5th min, 10th min, 20th min, 40th min, 1st h, 2nd h, 4th h, 6th h, 8th h, 12th h, 24th h, while the oral group at 5th min, 15th min, 30th min, 45th min, 1st h, 2nd h, 4th h, 6th h, 8th h, 12th h, 24th h. After 10 min centrifugation of plasma at 4500 rpm, the upper serum was taken and transferred to the corresponding EP tube, placed in a −40° C. freezer for assay.
Agilent 1100 series configuration: Agilent G1313A HPLC autosampler device, 150 mm×2.1 mm C18 Thermo column (particle size 3 μm) reversed-phase column, detection wavelength at 230 nm, column temperature at 30° C., mobile phase of acetonitrile/water (7:3), a flow rate at 0.2 ml/min, injection volume of 20 μl. The mass spectrometry (MS) combined was Thermo Finnigan TSQ Quantum triple quadrupole configurated with electrospray ionization (ESI) in the positive ion mode. The parameters of MS analysis were as follows: spray chamber voltage, 4.0 kv; heated capillary temperature, 350° C.; protective gas (nitrogen); 20 psi; auxiliary gas (nitrogen): 5 psi; collision gas (argon); pressure: 1.5 mmTorr.; Collision energy: CA 17 eV; FA and IFA were 19 eV; IS was 15 eV.
Paclitaxel was selected as an internal standard with a retention time of 3.07 min. Retention time of PCMI-08 was 5.13 min. MS detection condition to PCMI-08 was set as follows: 957→901 m/z; paclitaxel as an internal standard. Detection conditions: 876→308 m/z. The concentration range of the standard curve of PCMI-08 was 5-10,000 ng/ml (γ^2>0.99) and the minimum detection limit was 5 ng/ml.
100 μL of plasma samples were taken, into which 100 μL of the internal standard (paclitaxel, 500 ng/ml acetonitrile solution) was added, followed by addition of 3 ml of ethyl acetate after well homogenized via vortex, after 5 min shaking, centrifuging for 8 min at a rotating speed of 4500 rpm. The supernatant was transferred to a clean EP tube with nitrogen to blow to dry under heating condition. After reconstitution with 120 μL mobile phase (CH3CN/H2O=7:3), the solution was centrifuged at 12,000 rpm for 3 min, 100 μl of supernatant was taken and transferred to an autosampler vial. After LC-MS/MS detection, statistical data and pharmacokinetic parameters were processed by Xcalibur® (version 1.3) software (Thermo Finnigan).

[2] = system: Caco-2 cell monolayer; experiment: Caco-2 bidirectional transport, efflux ratio; details: Caco-2 cell line (21 days)
Text: (§3) Human-derived colorectal adenocarcinoma cell line Caco-2 cell monolayer model was used to study the bidirectional transport of the target compounds from the apical (AP) side to the basolateral (BL) side and from BL side to AP side. HPLC was used for quantitative analysis to calculate transport parameters, apparent permeability coefficient (Papp) and the efflux ratio.

[3] = system: LNCaP prostate cancer; experiment: MTT proliferation inhibition, LNCaP; format: cell-based; details: Homo sapiens, read-out: Proliferation inhibition rate, LNCaP Prostate cancer
Text: (§1) 1. Cytotoxicity Assay Using Human Tumor Cell Lines
(§2) Paclitaxel was used as the positive drug.

[4] = Caco-2 cell monolayer membrane transport assay (Papp and recovery); format: in vitro ADME; details: human, Caco-2, Caco-2, A-B
Text: Caco-2 Cell Monolayer Membrane Transport Assay
as §3

[5] = system: NCI-H460 non-small cell lung cancer; experiment: MTT proliferation inhibition, NCI-H460; format: cell-based; details: Homo sapiens, NCI-H460, read-out: Proliferation inhibition rate, NCI-H460 Non-small cell lung cancer
Text: as §1, §2

[6] = system: LN-18; experiment: MTT proliferation inhibition, LN-18; format: cell-based; details: Homo sapiens, LN-18, read-out: Proliferation inhibition rate, LN-18 Gastric canser
Text: as §1, §2

[7] = system: BGC-823 gastric cancer; experiment: MTT proliferation inhibition, BGC-823; format: cell-based; details: Homo sapiens, BGC-823, read-out: Proliferation inhibition rate, BGC-823 Gastric cancer
Text: as §1, §2

[8] = system: A2780 ovarian cancer; experiment: MTT proliferation inhibition, A2780; format: cell-based; details: Homo sapiens, A2780, read-out: Proliferation inhibition rate, A2780 Ovarian cancer
Text: as §1, §2

[9] = system: MCF-7 breast cancer cells; experiment: MTT proliferation inhibition, MCF-7; format: cell-based; details: Homo sapiens, MCF7, read-out: Proliferation inhibition rate, MCF-7 Breast cancer
Text: as §1, §2

[10] = system: MDA-MB-436 breast cancer cells; experiment: MTT proliferation inhibition, MDA-MB-436; format: cell-based; details: Homo sapiens, MDA-MB-436, read-out: Proliferation inhibition rate, MDA-MB-436 Breast cancer
Text: as §1, §2

[11] = system: A375 melanoma; experiment: MTT proliferation inhibition, A375; format: cell-based; details: Homo sapiens, A-375, read-out: Proliferation inhibition rate, A375 Melanoma
Text: as §1, §2

[12] = system: B16 melanoma; experiment: MTT proliferation inhibition, B16; format: cell-based; details: B16, read-out: Proliferation inhibition rate, B16 Melanoma
Text: as §1, §2

[13] = system: A549 non-small cell lung cancer; experiment: MTT proliferation inhibition, A549; format: cell-based; details: Homo sapiens, A549, read-out: Proliferation inhibition rate, A549 Non-small cell lung cancer
Text: as §1, §2

[14] = male, Sprague-Dawley, plasma, intravenous administration 5 mg/kg
[15] = male, Sprague-Dawley, plasma, oral administration 60 mg/kg

With CO[C@H]1C[C@H]2OC[C@@]2(OC(C)=O)[C@H]2[C@H](OC(=O)c3ccccc3)[C@]34OC(=O)O[C@H]3[C@H](OC(=O)[C@H](O)[C@@H](NC(=O)OC(C)(C)C)c3ccccc3)C(C)=C([C@@H](OC(=O)N(C)C)C(=O)[C@]12C)C4(C)C [PCMI-08] as the molecule, how does the half-life ([1]; male, Sprague-Dawley, plasma, other: intravenous and oral (summary over both arms), route not specified, read-out: half-life (converted)) read?
The half-life was about 10 h.

What about the AUC(0-inf) [1, 14] of the same molecule?
Its AUC(0-inf) is 4050 ± 1860 ng·h/mL.

What about the Cmax [1, 14] of the same molecule?
Its Cmax is 11000 ± 2680 ng/mL.

What about the Tmax [1, 14] of the same molecule?
The Tmax was 0 h.

And the AUC(0-t) [1, 14]?
The AUC(0-t) was 3440 ± 1480 ng·h/mL.

And the MRT inf [1, 14]?
Its MRT inf is 10.1 ± 2.6 h.

What about the half-life ([1]; male, Sprague-Dawley, plasma, intravenous administration 5 mg/kg, read-out: t1/2 (converted)) of the same molecule?
The half-life was 10.2 ± 1.72 h.

What about the AUC(0-inf) [1, 15] of the same molecule?
The AUC(0-inf) was 32000 ± 8540 ng·h/mL.

And the Cmax [1, 15]?
The Cmax was 2120 ± 454 ng/mL.

And the Tmax [1, 15]?
Its Tmax is 3 ± 1.1 h.

And the AUC(0-t) [1, 15]?
Its AUC(0-t) is 25300 ± 6150 ng·h/mL.

What about the MRT inf [1, 15] of the same molecule?
Its MRT inf is 15.2 ± 1.71 h.

And the half-life ([1]; male, Sprague-Dawley, plasma, oral administration 60 mg/kg, read-out: t1/2 (converted))?
Its half-life is 10.4 ± 1.14 h.

And the bioavailability ([1]; male, Sprague-Dawley, plasma, oral, 60 mg/kg, oral 60 mg/kg vs intravenous 5 mg/kg, read-out: F, absolute oral bioavailability)?
The bioavailability was 65.8%.

And the “F, absolute oral bioavailability” value ([1]; oral 60 mg/kg vs intravenous 5 mg/kg)?
Its value is 65.79%.

What about the mean retention time ([1]; route not specified) of the same molecule?
Its mean retention time is at least 10 h.

And the “Papp A-B” value ([2]; A-B)?
The value was 16.40 10^−6 cm/s.

And the “Papp B-A” value ([2]; B-A)?
Its value is 33.48 10^−6 cm/s.

What about the efflux ratio ([2]; Papp B-A/Papp A-B) of the same molecule?
The efflux ratio was 2.04.

What about the inhibition at 1 µM [3] of the same molecule?
Its inhibition at 1 µM is 84.3%.

What about the Papp A→B ([4]; Mean, read-out: Papp A-B, Mean) of the same molecule?
Its Papp A→B is over 10 ×10⁻⁶ cm/s.

And the recovery ([4]; Mean, read-out: Recovery rate in mass, Mean)?
The recovery was 99.4%.

And the Papp A→B ([4]; Sample-01, read-out: Papp A-B, Sample-01)?
Its Papp A→B is 19.5 ×10⁻⁶ cm/s.

What about the recovery ([4]; Sample-01, read-out: Recovery rate in mass, Sample-01) of the same molecule?
The recovery was 102%.

And the Papp A→B ([4]; Sample-02, read-out: Papp A-B, Sample-02)?
The Papp A→B was 17.3 ×10⁻⁶ cm/s.

What about the recovery ([4]; Sample-02, read-out: Recovery rate in mass, Sample-02) of the same molecule?
Its recovery is 97%.

And the inhibition at 1 µM [5]?
Its inhibition at 1 µM is 85.2%.

And the inhibition at 1 µM [6]?
Its inhibition at 1 µM is 87.7%.

What about the inhibition at 1 µM [7] of the same molecule?
The inhibition at 1 µM was 80.8%.

What about the inhibition at 1 µM [8] of the same molecule?
Its inhibition at 1 µM is 92.5%.

What about the inhibition at 1 µM [9] of the same molecule?
The inhibition at 1 µM was 81.3%.

And the inhibition at 1 µM [10]?
The inhibition at 1 µM was 65.7%.

What about the inhibition at 1 µM [11] of the same molecule?
Its inhibition at 1 µM is 92.8%.

What about the inhibition at 1 µM [12] of the same molecule?
Its inhibition at 1 µM is 70.6%.

And the inhibition at 1 µM [13]?
Its inhibition at 1 µM is 68.1%.
